# Measured values reported in patent US8173652B2, “Isoxazole-isoxazoles and isoxazole-isothiazoles” (Hoffmann-La Roche Inc., priority 2009, dated 2012).
# pKi: −log10 of the molar value.
# Target: T1, human GABA A receptor α5β3γ2 (Homo sapiens, UniProt P18507+P31644)
# T1 construct: expressed in transfected cells; host or cells: HEK293 (transiently transfected), membrane preparation
# Experiment: [3H]flumazenil competition binding assay, human GABA A α5 receptor
# Conditions: human α5β3γ2 receptors transiently transfected in HEK293 cells; displacement of [3H]flumazenil 0.5 nM; 1 hour at 4° C.; means of two determinations; read-out: hKi GABA A α5
# Description: Membrane Preparation and Binding Assay
# The affinity of compounds at GABA A receptor subtypes was measured by competition for [3H]flumazenil (85 Ci/mmol; Roche) binding to HEK293 cells expressing rat (stably transfected) or human (transiently transfected) receptors of composition α1β3γ2, α2β3γ2, α3β3γ2 and α5β3γ2.
# Cell pellets were suspended in Krebs-tris buffer (4.8 mM KCl, 1.2 mM CaCl2, 1.2 mM MgCl2, 120 mM NaCl, 15 mM Tris; pH 7.5; binding assay buffer), homogenized by polytron for ca. 20 sec on ice and centrifuged for 60 min at 4° C. (50000 g; Sorvall, rotor: SM24=20000 rpm). The cell pellets were re-suspended in Krebs-tris buffer and homogenized by polytron for ca. 15 sec on ice. Protein was measured (Bradford method, Bio-Rad) and aliquots of 1 mL were prepared and stored at −80° C.
# Radioligand binding assays were carried out in a volume of […] (96-well plates) which contained […] of cell membranes, [^3H]flumazenil at a concentration of 1 nM for α1, α2 and α3 subunits and 0.5 nM for α5 subunits and the test compound in the range of […]. Nonspecific binding was defined by 10^−5 M diazepam and typically represented less than 5% of the total binding. Assays were incubated to equilibrium for 1 hour at 4° C. and harvested onto GF/C uni-filters (Packard) by filtration using a Packard harvester and washing with ice-cold wash buffer (50 mM Tris; pH 7.5). After drying, filter-retained radioactivity was detected by liquid scintillation counting. Ki values were calculated using Excel-Fit (Microsoft) and are the means of two determinations.
row,pKi,SMILES
1,8.05,"Cc1onc(-c2ccccn2)c1COc1cc(C(=O)NN(C)C)on1 [Example 18, 3-(5-Methyl-3-pyridin-2-yl-isoxazol-4-ylmethoxy)-isoxazole-5-carboxylic acid N′,N′-dimethyl-hydrazide]"
2,8.52,"Cc1onc(-c2ccccn2)c1COc1cc(C(=O)NCCO)on1 [Example 15, 3-(5-Methyl-3-pyridin-2-yl-isoxazol-4-ylmethoxy)-isoxazole-5-carboxylic acid (2-hydroxy-ethyl)-amide]"
3,8.70,"Cc1onc(-c2ccccn2)c1COc1cc(C(=O)NN2CCOCC2)on1 [Example 19, 3-(5-Methyl-3-pyridin-2-yl-isoxazol-4-ylmethoxy)-isoxazole-5-carboxylic acid morpholin-4-ylamide]"
4,8.66,"Cc1onc(-c2ccc(F)cn2)c1COc1cc(C(=O)NCCO)on1 [Example 23, 3-[3-(5-Fluoro-pyridin-2-yl)-5-methyl-isoxazol-4-ylmethoxy]-isoxazole-5-carboxylic acid (2-hydroxy-ethyl)-amide]"
5,7.86,"Cc1onc(-c2ccccc2)c1COc1cc(C(=O)NN2CCCCC2)on1 [Example 11, 3-(5-Methyl-3-phenyl-isoxazol-4-ylmethoxy)-isoxazole-5-carboxylic acid piperidin-1-yl-amide]"
6,8.06,"Cc1onc(-c2ccccc2)c1COc1cc(C(=O)NC(C)CO)on1 (stereo not shown) [Example 6, 3-(5-Methyl-3-phenyl-isoxazol-4-ylmethoxy)-isoxazole-5-carboxylic acid (2-hydroxy-1-methyl-ethyl)-amide]"
7,8.22,"Cc1onc(-c2ccccn2)c1COc1cc(C(=O)NN2CCCCC2)on1 [Example 20, 3-(5-Methyl-3-pyridin-2-yl-isoxazol-4-ylmethoxy)-isoxazole-5-carboxylic acid piperidin-1-ylamide]"
8,8.36,"Cc1onc(-c2ccccc2)c1COc1cc(C(=O)NC2CCOC2)on1 (stereo not shown) [Example 4, 3-(5-Methyl-3-phenyl-isoxazol-4-ylmethoxy)-isoxazole-5-carboxylic acid (tetrahydro-furan-3-yl)-amide]"
9,7.64,"Cc1onc(-c2ccccc2)c1COc1cc(C(=O)NC(C)CO)on1 (single isomer, unassigned) [Example 9, (S or R)-3-(5-Methyl-3-phenyl-isoxazol-4-ylmethoxy)-isoxazole-5-carboxylic acid (2-hydroxy-1-methyl-ethyl)-amide]"
10,7.93,"Cc1onc(-c2ccc(F)cn2)c1COc1cc(C(=O)NC(C)C)sn1 [Example 38, 3-[3-(5-Fluoro-pyridin-2-yl)-5-methyl-isoxazol-4-ylmethoxy]-isothiazole-5-carboxylic acid isopropylamide]"
